# Measured values from patent US20230285514A1, “STAPLED LACTAM CO-AGONISTS OF THE GLUCAGON AND GLP-1 RECEPTORS” (Merck Sharp & Dohme LLC, priority 2019, published 2023).
# *1 amine or outer side, *2 acyl side, *3 side chain or, on linkers, in order; H or OH if unused. Where a SMILES comes first, the peptide text is derived from it. Bridges are numbered along the chain shown (N, C = ends). Side-chain parts run from the residue outwards. [ ]: non-standard residue; d: D form. The star is where a group is joined. γGlu = O=C(O)[C@H](CCC(=O)[*:2])N[*:1]; Palmitoyl = CCCCCCCCCCCCCCCC(=O)*; Nle = CCCC[C@H](N)C(=O)O; Aib = CC(C)(N)C(=O)O
# Biological target: T1, human GCGR (Homo sapiens, UniProt P47871)
# T1 construct: expressed in transfected cells
# T1 sequence (P47871 26-477): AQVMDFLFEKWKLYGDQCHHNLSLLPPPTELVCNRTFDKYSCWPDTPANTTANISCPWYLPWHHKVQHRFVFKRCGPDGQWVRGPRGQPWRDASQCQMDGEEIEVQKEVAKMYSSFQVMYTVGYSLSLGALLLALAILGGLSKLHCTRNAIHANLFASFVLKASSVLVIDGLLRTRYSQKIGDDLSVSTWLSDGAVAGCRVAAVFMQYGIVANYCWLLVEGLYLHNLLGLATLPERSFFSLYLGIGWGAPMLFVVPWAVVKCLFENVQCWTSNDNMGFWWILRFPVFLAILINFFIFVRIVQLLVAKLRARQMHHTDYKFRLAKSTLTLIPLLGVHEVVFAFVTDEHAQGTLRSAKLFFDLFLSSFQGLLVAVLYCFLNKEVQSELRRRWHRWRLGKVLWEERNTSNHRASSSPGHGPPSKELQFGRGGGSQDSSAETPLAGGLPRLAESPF
# Experiment: cAMP activity assay, cells expressing human GCGR
# Type: cell-based
# Conditions: cAMP production, cells expressing human GCGR, 1 hour; table does not say whether with or without 20% human serum
# Protocol: Activity of the peptides at the Glucagon receptor (GCGR) and GLP-1 receptor (GLP1R) was measured in a cAMP activity assay. Peptides were dissolved in 100% DMSO and serially diluted to generate 10 point titrations. The peptide solutions were then transferred into 384-well assay plates (150 nL/well). Assay ready frozen cells expressing human GLP1R or human GCGR were suspended in growth media consisting of DMEM medium (GIBCO), 10% FBS (GIBCO), 1×NEAA(GIBCO), 1×P/S (GIBCO), 10 ug/ml Blasticidin (GIBCO) and 200 μg/mL Hygromycin (GIBCO). […] The cell suspensions (15 μL) were then added to the assay plates containing the peptide solutions (30,000 cells/well for human GCGR; 10,000 cells/well for human GLP1R). […] Production of cAMP was determined using […] kits (DiscoverX) following manufacturer protocol. The plates were incubated for overnight at room temperature in the dark. Luminescence was measured using an EnVision Multilabel plate reader (Perkin Elmer). Native GLP-1 and Glucagon (Bachem) are used as control peptides.
row,Structure (SMILES),EC50
1,CCCCCCCCCCCCCCCC(=O)N[C@@H](CCC(=O)N[C@@H](CCC(=O)NCCCC[C@H](NC(=O)[C@H](CC(=O)O)NC(=O)[C@H](CO)NC(=O)[C@@H](NC(=O)[C@H](Cc1ccccc1)NC(=O)[C@@H](NC(=O)CNC(=O)[C@H](CCC(N)=O)NC(=O)[C@@H](CO)NC(=O)[C@@H](N)Cc1c[nH]cn1)[C@@H](C)O)[C@@H](C)O)C(=O)N[C@@H](CO)C(=O)N[C@@H](CCCCN)C(=O)N[C@@H](Cc1ccc(O)cc1)C(=O)N[C@@H](CC(C)C)C(=O)N[C@@H](CC(=O)O)C(=O)N[C@@H](C)C(=O)N[C@H]1CCCCNC(=O)CC[C@@H](C(=O)N[C@@H](Cc2ccccc2)C(=O)N[C@H](C(=O)N[C@@H](CCC(N)=O)C(=O)N[C@@H](Cc2c[nH]c3ccccc23)C(=O)N[C@@H](CC(C)C)C(=O)N[C@@H](CC(C)C)C(=O)N[C@@H](CC(=O)O)C(=O)N[C@H](C(N)=O)[C@@H](C)O)C(C)C)NC(=O)[C@H](CCC(N)=O)NC(=O)[C@H](C)NC(=O)[C@H](C)NC1=O)C(=O)O)C(=O)O [SEQ ID NO: 12],0.06 nM

# Same assay, conditions: ratio of human GCGR EC50 to human GLP1R EC50
row,Structure (SMILES),hGCGR/hGLPIR (hTone)
1,CCCCCCCCCCCCCCCC(=O)N[C@@H](CCC(=O)N[C@@H](CCC(=O)NCCCC[C@H](NC(=O)[C@H](CC(=O)O)NC(=O)[C@H](CO)NC(=O)[C@@H](NC(=O)[C@H](Cc1ccccc1)NC(=O)[C@@H](NC(=O)CNC(=O)[C@H](CCC(N)=O)NC(=O)[C@@H](CO)NC(=O)[C@@H](N)Cc1c[nH]cn1)[C@@H](C)O)[C@@H](C)O)C(=O)N[C@@H](CO)C(=O)N[C@@H](CCCCN)C(=O)N[C@@H](Cc1ccc(O)cc1)C(=O)N[C@@H](CC(C)C)C(=O)N[C@@H](CC(=O)O)C(=O)N[C@@H](C)C(=O)N[C@@H](CCCNC(=N)N)C(=O)N[C@@H](C)C(=O)N[C@@H](C)C(=O)N[C@@H](CCC(N)=O)C(=O)N[C@@H](CC(=O)O)C(=O)N[C@@H](Cc1ccccc1)C(=O)N[C@H](C(=O)N[C@H]1CCCCNC(=O)CC[C@@H](C(=O)N[C@H](C(N)=O)[C@@H](C)O)NC(=O)[C@H](CC(C)C)NC(=O)[C@H](CC(C)C)NC(=O)[C@H](Cc2c[nH]c3ccccc23)NC1=O)C(C)C)C(=O)O)C(=O)O [SEQ ID NO: 13] (H-H[dS]QGTFTSDK([γGlu-γGlu-Palmitoyl])SKYLDARAAQDFVKWLLET-NH2; lactam 24-28; N-terminus assumed),0.56
2,CCCCCCCCCCCCCCCC(=O)N[C@@H](CCC(=O)N[C@@H](CCC(=O)NCCCC[C@H](NC(=O)[C@H](CC(=O)O)NC(=O)[C@H](CO)NC(=O)[C@@H](NC(=O)[C@H](Cc1ccccc1)NC(=O)[C@@H](NC(=O)CNC(=O)[C@H](CCC(N)=O)NC(=O)[C@@H](CO)NC(=O)[C@@H](N)Cc1c[nH]cn1)[C@@H](C)O)[C@@H](C)O)C(=O)N[C@@H](CO)C(=O)N[C@@H](CCCCN)C(=O)N[C@@H](Cc1ccc(O)cc1)C(=O)N[C@@H](CC(C)C)C(=O)N[C@@H](CC(=O)O)C(=O)N[C@@H](C)C(=O)N[C@H]1CCCCNC(=O)CC[C@@H](C(=O)N[C@@H](Cc2ccccc2)C(=O)N[C@H](C(=O)N[C@@H](CCC(N)=O)C(=O)N[C@@H](Cc2c[nH]c3ccccc23)C(=O)N[C@@H](CC(C)C)C(=O)N[C@@H](CC(C)C)C(=O)N[C@@H](CC(=O)O)C(=O)N[C@H](C(N)=O)[C@@H](C)O)C(C)C)NC(=O)[C@H](CCC(N)=O)NC(=O)[C@H](C)NC(=O)[C@H](C)NC1=O)C(=O)O)C(=O)O [SEQ ID NO: 12],0.8
3,CCCCCCCCCCCCCCCC(=O)N[C@@H](CCC(=O)N[C@@H](CCC(=O)NCCCC[C@H](NC(=O)[C@H](CC(=O)O)NC(=O)[C@H](CO)NC(=O)[C@@H](NC(=O)[C@H](Cc1ccccc1)NC(=O)[C@@H](NC(=O)CNC(=O)[C@H](CCC(N)=O)NC(=O)C(C)(C)NC(=O)[C@@H](N)Cc1c[nH]cn1)[C@@H](C)O)[C@@H](C)O)C(=O)N[C@@H](CO)C(=O)N[C@@H](CCCCN)C(=O)N[C@@H](Cc1ccc(O)cc1)C(=O)N[C@@H](CC(C)C)C(=O)N[C@@H](CC(=O)O)C(=O)NC(C)(C)C(=O)N[C@@H](CCCNC(=N)N)C(=O)N[C@@H](C)C(=O)N[C@@H](C)C(=O)N[C@H]1CCCCNC(=O)CC[C@@H](C(=O)N[C@@H](Cc2c[nH]c3ccccc23)C(=O)N[C@@H](CC(C)C)C(=O)N[C@@H](CCCC)C(=O)N[C@@H](CC(=O)O)C(=O)N[C@H](C(N)=O)[C@@H](C)O)NC(=O)[C@H](C(C)C)NC(=O)[C@H](Cc2ccccc2)NC(=O)[C@H](CC(=O)O)NC1=O)C(=O)O)C(=O)O [SEQ ID NO: 15] (H-H[Aib]QGTFTSDK([γGlu-γGlu-Palmitoyl])SKYLD[Aib]RAAKDFVEWL[Nle]DT-NH2; lactam 20-24; N-terminus assumed),2.61
4,CCCCCCCCCCCCCCCC(=O)N[C@@H](CCC(=O)N[C@@H](CCC(=O)NCCCC[C@H](NC(=O)[C@H](CC(=O)O)NC(=O)[C@H](CO)NC(=O)[C@@H](NC(=O)[C@H](Cc1ccccc1)NC(=O)[C@@H](NC(=O)CNC(=O)[C@H](CCC(N)=O)NC(=O)[C@@H](CO)NC(=O)[C@@H](N)Cc1c[nH]cn1)[C@@H](C)O)[C@@H](C)O)C(=O)N[C@@H](CO)C(=O)N[C@@H](CCCCN)C(=O)N[C@@H](Cc1ccc(O)cc1)C(=O)N[C@@H](CC(C)C)C(=O)N[C@@H](CC(=O)O)C(=O)N[C@@H](CCC(=O)O)C(=O)N[C@@H](CCCNC(=N)N)C(=O)N[C@@H](C)C(=O)N[C@@H](C)C(=O)N[C@H]1CCCCNC(=O)CC[C@@H](C(=O)N[C@@H](Cc2c[nH]c3ccccc23)C(=O)N[C@@H](CC(C)C)C(=O)N[C@@H](CC(C)C)C(=O)N[C@@H](CC(=O)O)C(=O)N[C@H](C(N)=O)[C@@H](C)O)NC(=O)[C@H](C(C)C)NC(=O)[C@H](Cc2ccccc2)NC(=O)[C@H](CC(=O)O)NC1=O)C(=O)O)C(=O)O [SEQ ID NO: 8] (H-H[dS]QGTFTSDK([γGlu-γGlu-Palmitoyl])SKYLDERAAKDFVEWLLDT-NH2; lactam 20-24; N-terminus assumed),0.84
5,CCCCCCCCCCCCCCCC(=O)N[C@@H](CCC(=O)N[C@@H](CCC(=O)NCCCC[C@H](NC(=O)[C@H](CC(=O)O)NC(=O)[C@H](CO)NC(=O)[C@@H](NC(=O)[C@H](Cc1ccccc1)NC(=O)[C@@H](NC(=O)CNC(=O)[C@H](CCC(N)=O)NC(=O)[C@@H](CO)NC(=O)[C@@H](N)Cc1c[nH]cn1)[C@@H](C)O)[C@@H](C)O)C(=O)N[C@@H](CO)C(=O)N[C@@H](CCCCN)C(=O)N[C@@H](Cc1ccc(O)cc1)C(=O)N[C@@H](CC(C)C)C(=O)N[C@@H](CC(=O)O)C(=O)N[C@H]1CCCCNC(=O)CC[C@@H](C(=O)N[C@@H](CC(=O)O)C(=O)N[C@@H](Cc2ccccc2)C(=O)N[C@H](C(=O)N[C@@H](CCC(N)=O)C(=O)N[C@@H](Cc2c[nH]c3ccccc23)C(=O)N[C@@H](CC(C)C)C(=O)N[C@@H](CC(C)C)C(=O)N[C@@H](CC(=O)O)C(=O)N[C@H](C(N)=O)[C@@H](C)O)C(C)C)NC(=O)[C@H](C)NC(=O)[C@H](C)NC(=O)[C@H](CCCNC(=N)N)NC1=O)C(=O)O)C(=O)O [SEQ ID NO: 10] (H-H[dS]QGTFTSDK([γGlu-γGlu-Palmitoyl])SKYLDKRAAEDFVQWLLDT-NH2; lactam 16-20; N-terminus assumed),0.8
6,CCCCCCCCCCCCCCCC(=O)N[C@@H](CCC(=O)N[C@@H](CCC(=O)NCCCC[C@H](NC(=O)[C@H](CC(=O)O)NC(=O)[C@H](CO)NC(=O)[C@@H](NC(=O)[C@H](Cc1ccccc1)NC(=O)[C@@H](NC(=O)CNC(=O)[C@H](CCC(N)=O)NC(=O)C(C)(C)NC(=O)[C@@H](N)Cc1c[nH]cn1)[C@@H](C)O)[C@@H](C)O)C(=O)N[C@@H](CO)C(=O)N[C@@H](CCCCN)C(=O)N[C@@H](Cc1ccc(O)cc1)C(=O)N[C@@H](CC(C)C)C(=O)N[C@@H](CC(=O)O)C(=O)NC(C)(C)C(=O)N[C@@H](CCCNC(=N)N)C(=O)N[C@@H](C)C(=O)N[C@@H](C)C(=O)N[C@@H](CCC(N)=O)C(=O)N[C@@H](CC(=O)O)C(=O)N[C@@H](Cc1ccccc1)C(=O)N[C@H](C(=O)N[C@H]1CCCCNC(=O)CC[C@@H](C(=O)N[C@H](C(N)=O)[C@@H](C)O)NC(=O)[C@H](CCCC)NC(=O)[C@H](CC(C)C)NC(=O)[C@H](Cc2c[nH]c3ccccc23)NC1=O)C(C)C)C(=O)O)C(=O)O [SEQ ID NO: 17] (H-H[Aib]QGTFTSDK([γGlu-γGlu-Palmitoyl])SKYLD[Aib]RAAQDFVKWL[Nle]ET-NH2; lactam 24-28; N-terminus assumed),1.05
